Results from PMC6324813, “Biological evaluation of isoflavonoids from Genista halacsyi using estrogen-target cells: Activities of glucosides compared to aglycones” (PLoS ONE, 2019).

Legend:
[1] = system: Ishikawa cells; assay: Induction of AlkP expression in Ishikawa cells; format: cell-based, human; settings: for EC (25% of 0.1 nM E2 effect) / activation at 1 µM: 72 h; for EC (25% of 0.1 nM E2 effect): concentration required to achieve 25% of the effect of 0.1 nM E2, read-out: Induction of Alkaline Phosphatase Expression (Ishikawa cells) EC25E2; for activation at 1 µM: read-out: Induction of AlkP expression (Ishikawa cells) Agonism at 1μΜ (% of 0.1nM E2)
Description: Induction of AlkP expression of Ishikawa cells is considered as a reliable in vitro measure of estrogenic activity. Assessment of AlkP expression in Ishikawa cells was carried as already described. Briefly, the cells were plated in 96-well plates at a density of 12,000 cells per well in phenol-red-free MEM supplemented with 1 μg/mL insulin and 5% DCC-FBS. […] Data on the dependence of AlkP activity on isoflavonoid concentration were curve fitted using SigmaPlot10 (SPSS Inc) and the numerical data of curve fitting were used to determine AUC as described above, using for the calculation of AUC of a particular AlkP response the very same concentration used for the respective luciferase response. The AUC of AlkP responses of the isoflavonoids of a group were expressed as % of the AUC of the luciferase response of the respective archetypal isoflavone.

[2] = system: MCF-7 cells; assay: MCF-7 cell proliferation (MTT); format: cell-based, human; settings: for activation at 1 µM: Homo sapiens, MCF7, 72 h, read-out: Induction of cell proliferation (MCF-7 cells) Agonism at 1μΜ (% of 0.1nM E2)
Description: Test compound effects on the proliferation of MCF-7 and MDA-MB-231 cells were assessed as previously described.

[3] = system: RAW 264.7 cells; assay: Differentiation of RAW 264.7 cells to osteoclasts, TRAP activity; format: cell-based, mouse; settings: RANKL 50 ng/ml + E2 1 nM or compound 1 μM; 3 days; DF plus vehicle = 100
Description: Clones of RAW 264.7 cells competent to differentiate to multinuclear osteoclasts upon activation with RANKL provide valuable information on the regulation of osteoclast differentiation. Differentiation-competent RAW cells (ATCC TIB-71) were seeded in 96-well plates at a density of 9,600 cells per well. The cells were plated in the presence of test compounds or compound diluent (0.1% DMSO) and, 4 h after plating, were exposed for 3 days to 50 ng/ml RANKL or to plain medium. Osteoclastic differentiation was assessed via induction of Tartrate-Resistant Acid Phosphatase (TRAP) activity. The cells were washed with PBS and incubated with 25μl lysis buffer (0.4 M NaCl, 25 mM Hepes pH 7.7, 1.5 mM MgCl2, 0.2 mM EDTA, 1% NP40) for 5 min on ice.

[4] = system: HT22 cells; assay: Glutamate toxicity (oxytosis) of HT22 neuronal cells (MTT); settings: for viability of HT22 cells under normal growth conditions compared to vehicle-treated cells: no glutamate
Description: Glutamate-challenged HT22 cells suffer oxidative stress-induced cell death (oxytosis) within 24 h due to glutathione depletion and consequent massive accumulation of ROS [42]. The efficacy of test compounds to prevent oxytosis of HT22 cells was assessed as already described. Briefly, HT22 cells were plated in 96-well flat bottom plates at a density of 4,000 cells per well in 100 μl of DMEM (low glucose) containing 2% FBS. 24 h after plating, the cells were treated with test compounds or compound diluent (0.1% DMSO) and then challenged with 5 mM glutamate for 24 h. […] Non-challenged cells served to assess test compound effects on cell viability, whereas challenged cells served to assess the neuroprotective activity of test compounds.

[5] = system: TNFα mRNA; assay: LPS-induced TNFα mRNA expression in RAW 264.7 cells (RT-qPCR); format: cell-based, mouse
Description: To assess TNFα mRNA expression, RAW 264.7 cells were plated in 6-well plates in alpha-MEM medium supplemented with 10% DCC-FBS, at a density of 300,000 cells per well, maintained in culture for 72 h and then exposed to vehicle (0.3% DMSO) or 3 μΜ test compound for 20 min or 24 h prior to stimulation with 100 ng/ml lipopolysaccharide (Sigma L4391) for 1 h. Extraction of total RNA, reverse transcription (RT) and quantitative PCR (qPCR) analysis of mRNA expression levels were performed as previously described. Relative gene expression levels were calculated by the comparative Ct method using the formula 2^(-ΔCt). Tumor necrosis factor alpha (TNFα) mRNA levels were normalized to the respective levels of […] (GAPDH). Test compound effects on the relative number of viable cells were assessed using crystal violet and a Safire II microplate reader (Tecan) as previously described. […] The following primers were used: […]

[6] = system: RAW 264.7 cells; settings: cited from earlier work
[7] = system: HT22 cells; settings: cited from earlier work; for prevention of oxytosis of glutamate-challenged HT22 cells: 1 μM estradiol or 2.5 μM genistein
[8] = system: TNFα mRNA; settings: cited from earlier work
[9] = system: MDA-MB-231 cells; assay: MDA-MB-231 cell proliferation (MTT); format: cell-based; settings: 0.1 nM estradiol, 1 μM ICI182,780, isoflavonoids 1 μM
Description: Test compound effects on the proliferation of MCF-7 and MDA-MB-231 cells were assessed as previously described. […] Relative numbers of cells exposed to estradiol or to ICI182,780 acted as positive and negative control, respectively.

[10] = system: MC3T3-E1 cells; assay: Differentiation of MC3T3-E1 cells to osteoblasts, AlkP activity; format: cell-based, mouse; settings: DF + E2 1 nM or compound 1 μM; 6 days; DF plus vehicle = 100
Description: (§1) Differentiation of MC3T3-E1 cells was carried out in 96-well plates using 3,300 cells per well and was assessed via induction of, i) Alkaline Phosphatase (AlkP) activity after 6 days of treatment and, ii) mineralization of extracellular matrix after 21 days of treatment. Briefly, 24 h after plating, the cells were incubated with test compounds or vehicle i.e. the compound diluent (0.1% DMSO) and then exposed for 6 days to differentiation medium in presence or absence of differentiation factors (cf. Cell culture) with a change to fresh compounds and medium in 3 days. AlkP activity was assessed at 405 nm in a Safire II microplate reader using as substrate p-nitrophenyl-phosphate (pNPP, Sigma-Aldrich) as already described. Mineralization of MC3T3 cells was assessed by staining with Alizarin red (Fluka). Cells were cultured and treated as described above for 21 days, with media and test compounds changed every 3 days, and calcium phosphate deposition was assayed as described by Gregory et al.. Briefly, the cells were washed twice with PBS and fixed with 70% ethanol for 15 min on ice. The cells were stained with Alizarin red solution (40 mM, pH 4.2) for 30 min at room temperature, washed twice with distilled water and once with PBS. The dye from the stained mineral deposits was extracted with 33% acetic acid and the absorbance was measured at 405 nm using a Safire II microplate reader (Tecan).

[11] = system: MC3T3-E1 cells; assay: Mineralization of MC3T3-E1 cells, Alizarin red staining; format: cell-based, mouse; settings: DF + E2 1 nM or compound 1 μM; 21 days; DF plus vehicle = 100
Description: as §1, with “Differentiation of MC3T3-E1 cells to osteoblasts has been extensively used to screen for compounds that may promote bone formation. Differentiation” for “Differentiation”

[12] = biological target: ERβ (Homo sapiens, UniProt Q92731); assay: ERE-dependent luciferase gene transcription in HEK:ERβ cells; format: cell-based; design: expressed in transfected cells; host or cells: HEK-293 (HEK:ERβ clone, with pERE-tk-Luciferase); settings: compounds 1 μM, estradiol 0.1 nM; 18 h
Chain of ERβ (Q92731 whole entry): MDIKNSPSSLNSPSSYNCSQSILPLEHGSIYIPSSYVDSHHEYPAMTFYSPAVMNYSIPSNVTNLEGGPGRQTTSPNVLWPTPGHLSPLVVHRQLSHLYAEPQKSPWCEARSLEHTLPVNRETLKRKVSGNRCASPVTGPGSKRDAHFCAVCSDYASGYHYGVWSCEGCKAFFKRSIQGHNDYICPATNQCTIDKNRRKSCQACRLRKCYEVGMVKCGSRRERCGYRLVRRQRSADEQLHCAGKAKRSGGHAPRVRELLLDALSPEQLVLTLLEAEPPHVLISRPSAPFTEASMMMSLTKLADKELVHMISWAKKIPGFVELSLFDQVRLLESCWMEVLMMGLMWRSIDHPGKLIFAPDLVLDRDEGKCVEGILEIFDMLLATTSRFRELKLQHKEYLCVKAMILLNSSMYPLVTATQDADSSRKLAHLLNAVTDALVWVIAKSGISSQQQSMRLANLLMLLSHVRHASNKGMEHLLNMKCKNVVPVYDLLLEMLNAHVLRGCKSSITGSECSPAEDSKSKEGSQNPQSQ
Description: Assessment of ER/ERE-dependent luciferase gene transcription in MCF-7:D5L (express ERα) and HEK:ERβ cells (express ERβ) and determination of ER transcriptional agonism was carried as already described. Briefly, the cells were plated in 96-well plates at a density of 12,000 cells per well in phenol-red-free MEM (MCF-7:D5L cells) or phenol-red-free DMEM (HEK:ERβ cells) supplemented with 1 μg/mL insulin and 5% DCC-FBS. […] The AUC of the isoflavonoids of each group were then expressed as % of the AUC of the respective archetypal isoflavone. Since AUC data combine the efficacy as well as the potency of cell response into a single parameter, the %AUC data were considered here as a more reliable measure of relative ER/ERE-dependent luciferase expression of the test compounds.

[13] = 1 nM estradiol or 1 μM compound

Row | SMILES | EC (25% of 0.1 nM E2 effect) ([1]; Homo sapiens, Ishikawa) [µM] | activation at 1 µM ([1]; Homo sapiens, Ishikawa) [%] | activation at 1 µM [2] [%] | Differentiation of RAW 267.4 cells, TRAP expression (%) [3] [%] | viability of HT22 cells under normal growth conditions compared to vehicle-treated cells [4, 13] | concentrations that inhibit osteoclastic differentiation of RAW 264.7 cells [6] [µM] | prevention of oxytosis of glutamate-challenged HT22 cells [7] | other results
1 | O=c1c(-c2ccc(O)cc2)coc2cc(O)cc(O)c12 [Compound 3, genistein] | 0.03 ± 0.01 | 110 ± 11 | 79 ± 6 | 106±11 | not different | ≥ 10 | unable to prevent oxytosis | EC50 ([1]; Homo sapiens, Ishikawa, read-out: Induction of Alkaline Phosphatase Expression (Ishikawa cells) EC50E2): 0.05 ± 0.02 µM; viability of glutamate-treated HT22 cells (% of glutamate-free cells) ([4]; 5 mM glutamate 24 h, 1 nM estradiol or 1 μM compound): ≤ 40%; reduction of LPS induction of TNFα mRNA expression ([5]; 3 μM, pre-treatment 24 h, LPS 100 ng/ml 1 h): 15%; suppression of LPS-stimulated TNFα mRNA expression ([5]; pre-incubated with 3 μM isoflavonoid prior to the stimulation): ineffective; inhibition of TNFα gene transcription in RAW 264.7 cells ([8]; pre-incubation with low micromolar concentrations): 30–40%
2 | C[C@]12CC[C@@H]3c4ccc(O)cc4CC[C@H]3[C@@H]1CC[C@@H]2O [Estradiol, 17β-estradiol, reference compound] | 9.83 ± 0.44 | 100 ± 9 | 100 ± 19 | 105±3 | not different | ≥ 10 | unable to prevent oxytosis | induction of AlkP expression ([1]; 0.1 nM estradiol, vs vehicle): 3.68 fold; induction of proliferation of MCF-7 cells ([2]; 0.1 nM estradiol, vs vehicle): 1.80 fold; proliferation of MDA-MB-231 cells [9]: not affected; Differentiation of MC3T3-E1 cells, AlkP expression (%) [10]: 118±2 %; Differentiation of MC3T3-E1 cells, Alizarin red staining (%) [11]: 134±7 %; viability at 0.001 µM ([4]; Mus musculus, HT-22, 24 h, read-out: viability of glutamate-treated HT22 cells (% of glutamate-free cells)): ≤ 40%; IC50 ([7]; read-out: IC50, ER-dependent protection of glutamate-challenged HT22 cells from oxytosis): > 0.8 µM; suppression of TNFα mRNA expression and cytokine release after LPS ([8]; estrogen-free RAW 264.7 cells): unable to suppress; Induction of luciferase gene transcription through ERβ, HEK:ERβ cells, Agonism at 1μΜ (% of 0.1nM E2) [12]: 100 ± 12 % of 0.1nM E2
